# Source: PubChem BioAssay AID1845207 (Molecular Pharmacology Branch, DTP, NCI, 2023)
# Test system: NCI-H1876 tumor spheroid viability
# Test: Anticancer human tumor NCI-H1876 cell line growth inhibition;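 also: spheroids exposed to compounds for seven days before the viability read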;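 as to viability, T/C: percent of DMSO vehicle control viability so 100% = vehicle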
# Details: spheroids with HUVEC and MSC; for IC50: curve of first compound; for viability, T/C: stronger effect = lower value
# From the text: Multicellular complex tumor spheroid response to DNA repair inhibitors in combination with DNA-damaging drugs
# This study explores the anticancer activities of DNA-damaging drugs and inhibitors of DNA damage repair, both as single agents and in combinations. Complex tumor spheroids comprised of malignant cells, endothelial cells and mesenchymal stem cells served as an in vitro model for human solid tumors. This model system incorporates physiologically relevant features and patient-derived or established malignant cell lines with clinically relevant genetic alterations from many tumor types. Twenty-six patient-derived or established malignant cell lines were evaluated representing sarcoma, melanoma, small cell lung cancer (SCLC), non-small cell lung cancer (NSCLC), as well as bladder, ovarian and pancreatic cancers. The concentration ranges selected for each drug and investigational agent were based upon clinically achievable concentrations if the clinical Cmax of the agent was known.
# Compounds. The drugs and compounds olaparib (NSC753686), talazoparib (NSC767125), berzosertib (NSC777718), elimusertib (NSC800525), nedisertib (NSC802822), VX-984 (NSC792969), AZD-1390 (NSC803789), temozolomide (NSC362856), topotecan (NSC609699), trabectedin (NSC813783), staurosporine (NSC755774), and gemcitabine (NSC613327) were obtained from the National Cancer Institute (NCI) Developmental Therapeutics Program Chemical Repository. The FDA-approved anticancer drug set is available from the Developmental Therapeutics Program at https://dtp.cancer.gov/organization/dscb/obtaining/available_plates.htm. […] The stock solutions were prepared in dimethyl sulfoxide (DMSO, Sigma-Aldrich, St. Louis, MO, cat. D2650) at 400-fold the tested concentration and stored at -70 degrees C. Prior to their use, the stock solutions were diluted in fresh medium and the final DMSO concentration in the assay was 0.25% (v/v). All drugs and investigational agents were tested over a range starting from a high concentration at or near the clinical Cmax and decreasing in half-log increments. If the clinical Cmax for an agent had not been determined, the highest concentration tested was 10 microM.
# Cell Lines. The patient-derived cancer cell (PDC) lines: 156681-154-R-J1-PDC, 283228-195-R-J1-PDC, 287954-098-R-J1-PDC, 292921-168-R-J2-PDC, 349418-098-R-PDC, 425362-245-T-J1-PDC, 556581-035-R-J1-PDC, and BL0293-F563-PDC were received from the NCI Patient-Derived Models Repository (PDMR, https://pdmr.cancer.gov). The established cell lines HS-SY-2 (RRID:CVCL_8719), MPNST, and SYO-1 (RRID:CVCL_7146) were obtained from the Sloan Kettering Institute. The alveolar soft parts sarcoma cell line ASPS-1 (RRID:CVCL_S738) was established at the NCI and grown from internal seed stocks. The following established cell lines were purchased from the American Type Culture Collection (ATCC, Manassas, VA): G-401 (ATCC, cat. CRL-1441, RRID:CVCL_0270), SW982 (ATCC, cat. HTB-93, RRID:CVCL_1734), VA-ES-BJ (ATCC, cat. CRL-2138, RRID:CVCL_1785), NCI-H719 (ATCC, cat. CRL-5837, RRID:CVCL_1582), NCI-H196 (ATCC, cat. CRL-5823, RRID:CVCL_1509), NCI-H841 (ATCC, cat. CRL-5845, RRID:CVCL_1595), NCI-H1618 (ATCC, cat. CRL-5879, RRID:CVCL_1480), NCI-H1876 (ATCC, cat. CRL-5902, RRID:CVCL_1503), DMS 114 (ATCC, cat. CRL-2066; RRID:CVCL_1174), NCI-H211 (ATCC, cat. CRL-5824; RRID:CVCL_1529), and SW 1271 (ATCC, cat. CRL-2177, RRID:CVCL_1716). The small cell lung cancer cell line COR-L88 was purchased from Sigma-Aldrich (cat. 92031917-1VL, RRID:CVCL_1141). The non-small cell lung cancer cell lines NCI-H226 (RRID:CVCL_1544) and NCI-H322M (RRID:CVCL_1557) were established at the NCI and grown from internal seed stocks. Pooled donor human umbilical vein endothelial cells (HUVEC, Lonza, cat. CC-2519) and human mesenchymal stem cells (hMSC, Lonza, cat. PT-2501) were purchased from Lonza (Walkersville, MD).
# Cell Culture. All cells were maintained in an incubator at 37 degrees C and 5% CO2 with 95% humidity. […]
smiles,measurement,setting,value
Cc1cc(C)c(CNC(=O)c2cc(-c3ccc(CN4CCOCC4)cc3)cc3c2cnn3C2CCCC2)c(=O)[nH]1 + CC[C@@]1(O)C(=O)OCc2c1cc1n(c2=O)Cc2cc3c(CN(C)C)c(O)ccc3nc2-1,IC50,second compound 0.003 µM,509 nM
same,IC50,second compound 0.00949 µM,< 31.6 nM
same,IC50,second compound 0.03 µM,< 31.6 nM
same,IC50,second compound 0.0949 µM,< 31.6 nM
same,IC50,second compound 0.3 µM,< 31.6 nM
same,"viability, T/C","second compound 0.003 µM, first compound 0.0316 µM",78.6%
same,"viability, T/C","second compound 0.003 µM, first compound 0.1 µM",70%
same,"viability, T/C","second compound 0.003 µM, first compound 0.316 µM",56.6%
same,"viability, T/C","second compound 0.003 µM, first compound 1 µM",39%
same,"viability, T/C","second compound 0.003 µM, first compound 3.16 µM",27.7%
same,"viability, T/C","second compound 0.003 µM, first compound 10 µM",10.5%
same,"viability, T/C","second compound 0.00949 µM, first compound 0.0316 µM",40.9%
same,"viability, T/C","second compound 0.00949 µM, first compound 0.1 µM",39.6%
same,"viability, T/C","second compound 0.00949 µM, first compound 0.316 µM",35.1%
same,"viability, T/C","second compound 0.00949 µM, first compound 1 µM",26.2%
same,"viability, T/C","second compound 0.00949 µM, first compound 3.16 µM",22%
same,"viability, T/C","second compound 0.00949 µM, first compound 10 µM",10.5%
same,"viability, T/C","second compound 0.03 µM, first compound 0.0316 µM",15.6%
same,"viability, T/C","second compound 0.03 µM, first compound 0.1 µM",15.2%
same,"viability, T/C","second compound 0.03 µM, first compound 0.316 µM",17.6%
same,"viability, T/C","second compound 0.03 µM, first compound 1 µM",17.8%
same,"viability, T/C","second compound 0.03 µM, first compound 3.16 µM",16.5%
same,"viability, T/C","second compound 0.03 µM, first compound 10 µM",9.6%
same,"viability, T/C","second compound 0.0949 µM, first compound 0.0316 µM",8.57%
same,"viability, T/C","second compound 0.0949 µM, first compound 0.1 µM",9.17%
same,"viability, T/C","second compound 0.0949 µM, first compound 0.316 µM",10.2%
same,"viability, T/C","second compound 0.0949 µM, first compound 1 µM",12.2%
same,"viability, T/C","second compound 0.0949 µM, first compound 3.16 µM",12%
same,"viability, T/C","second compound 0.0949 µM, first compound 10 µM",11.9%
same,"viability, T/C","second compound 0.3 µM, first compound 0.0316 µM",3.79%
same,"viability, T/C","second compound 0.3 µM, first compound 0.1 µM",4.57%
same,"viability, T/C","second compound 0.3 µM, first compound 0.316 µM",4.59%
same,"viability, T/C","second compound 0.3 µM, first compound 1 µM",6.24%
same,"viability, T/C","second compound 0.3 µM, first compound 3.16 µM",7.93%
same,"viability, T/C","second compound 0.3 µM, first compound 10 µM",7.45%
Cc1sc2c(c1C)C(c1ccc(Cl)cc1)=NC(CC(=O)Nc1ccc(O)cc1)c1nnc(C)n1-2 (stereo not given) + CC[C@@]1(O)C(=O)OCc2c1cc1n(c2=O)Cc2cc3c(CN(C)C)c(O)ccc3nc2-1,IC50,second compound 0.003 µM,31.8 nM
same,IC50,second compound 0.00949 µM,< 9.49 nM
same,IC50,second compound 0.03 µM,< 9.49 nM
same,IC50,second compound 0.0949 µM,< 9.49 nM
same,IC50,second compound 0.3 µM,< 9.49 nM
same,"viability, T/C","second compound 0.003 µM, first compound 0.00949 µM",70.7%
same,"viability, T/C","second compound 0.003 µM, first compound 0.03 µM",52.3%
same,"viability, T/C","second compound 0.003 µM, first compound 0.0949 µM",25.6%
same,"viability, T/C","second compound 0.003 µM, first compound 0.3 µM",15.8%
same,"viability, T/C","second compound 0.003 µM, first compound 0.949 µM",8.93%
same,"viability, T/C","second compound 0.003 µM, first compound 3 µM",5.64%
same,"viability, T/C","second compound 0.00949 µM, first compound 0.00949 µM",30.6%
same,"viability, T/C","second compound 0.00949 µM, first compound 0.03 µM",46.8%
same,"viability, T/C","second compound 0.00949 µM, first compound 0.0949 µM",16.6%
same,"viability, T/C","second compound 0.00949 µM, first compound 0.3 µM",12.2%
same,"viability, T/C","second compound 0.00949 µM, first compound 0.949 µM",7.36%
same,"viability, T/C","second compound 0.00949 µM, first compound 3 µM",5.57%
same,"viability, T/C","second compound 0.03 µM, first compound 0.00949 µM",12.2%
same,"viability, T/C","second compound 0.03 µM, first compound 0.03 µM",30%
same,"viability, T/C","second compound 0.03 µM, first compound 0.0949 µM",12.2%
same,"viability, T/C","second compound 0.03 µM, first compound 0.3 µM",10.8%
same,"viability, T/C","second compound 0.03 µM, first compound 0.949 µM",5.27%
same,"viability, T/C","second compound 0.03 µM, first compound 3 µM",4.32%
same,"viability, T/C","second compound 0.0949 µM, first compound 0.00949 µM",7.77%
same,"viability, T/C","second compound 0.0949 µM, first compound 0.03 µM",8.11%
same,"viability, T/C","second compound 0.0949 µM, first compound 0.0949 µM",8.71%
same,"viability, T/C","second compound 0.0949 µM, first compound 0.3 µM",7.87%
same,"viability, T/C","second compound 0.0949 µM, first compound 0.949 µM",5.5%
same,"viability, T/C","second compound 0.0949 µM, first compound 3 µM",4%
same,"viability, T/C","second compound 0.3 µM, first compound 0.00949 µM",3.46%
same,"viability, T/C","second compound 0.3 µM, first compound 0.03 µM",3.69%
same,"viability, T/C","second compound 0.3 µM, first compound 0.0949 µM",3.67%
same,"viability, T/C","second compound 0.3 µM, first compound 0.3 µM",3.02%
same,"viability, T/C","second compound 0.3 µM, first compound 0.949 µM",2.65%
same,"viability, T/C","second compound 0.3 µM, first compound 3 µM",1.56%
